Legend:
[1] = tested on: substance P and glutamate; test: Clinical observation of suppression of substance P and glutamate by nitrous oxide; assay type: in vivo
Source text: The length of treatment to suppress the severe cytokine reaction will vary and be influenced by the time to medically correct the initiating factor. […] For children, adjustments will have to be made for age and body weight. […] Other inhalants can be included in the above-compositions such as for other purposes.

[2] = at effective dosages; cited from earlier work

Structure (SMILES): [N-]=[N+]=O [nitrous oxide]
- Duration of substance P suppression, average cases ([1]; average cases): 4 to 8 h
- duration of suppression of substance P and glutamate ([1]; conscious sedation levels, about 50% nitrous oxide/about 50% oxygen): 6 to 8 h
- respiratory depression, over sedation, or irritation of the lungs [2]: does not cause respiratory depression, over sedation, or irritation of the lungs
